Values of other authors in US9850267B2, “Crystalline fosaprepitant dicyclohexylamine salt and its preparation” (Navinta, LLC, priority 2015, dated 2017).

Conditions: white to off-white amorphous powder

solubility in water: freely soluble in water
Structure (SMILES): C[C@@H](O[C@H]1OCCN(Cc2nc(O)n(P(=O)(O)O)n2)[C@H]1c1ccc(F)cc1)c1cc(C(F)(F)F)cc(C(F)(F)F)c1 [Fosaprepitant dimeglumine, fosaprepitant dimeglumine]
